Assay: Liver microsomal stability (extraction ratio)
Format: in vitro ADME
Conditions: test compound 1 μM; 0.5 mg/mL liver microsomes, NADPH 1 mM, 37° C.; predicted hepatic clearance (well-stirred model) divided by species blood flow; species not given
Procedure: Protocol for Liver Microsomal Stability (Extraction Ratio)
Liver Microsomal Stability. Microsomal stability studies (Chrovian et al, “1H-Pyrrolo[3,2-b]pyridine GluN2B-Selective Negative Allosteric Modulators”. ACS Med Chem Lett. 2019 Jan. 10; 10(3):261-266) were conducted on a Biomek® FX Robotic Liquid Handling Workstation (Beckman Coulter, Brea, Calif.), which consists of a 96-channel pipette head, a 12-position workstation deck, and a plate incubator. Test compounds (1 μM) were spiked in a reaction mix consisting of 100 mM potassium phosphate buffer (pH 7.4), 3 mM MgCl2, and 0.5 mg/mL liver microsomes from mouse, rat, and human (BD Gentest). The reaction was brought to 37° C. and initiated by adding NADPH to a final concentration of 1 mM. After mixing on the plate deck, 50 μL aliquots were excised from the reaction plate at 0, 5, 10, 20, 40, and 60 min and quenched with four volumes of acetonitrile spiked with […] of the internal standard phenytoin. Quenched plates were centrifuged at 5700 rpm for 10 min at 4° C., and supernatant was diluted 1:3 in water before LC/MS/MS analysis. The compound half-lives were derived from plots of the ln of percent remaining compound over time to determine the intrinsic clearance. The predicted hepatic clearance was derived from the intrinsic clearance value using equations from the well-stirred model (Current Drug Metabolism, 2008, 9, 940-951), where no correction was made plasma protein binding and the blood to plasma concentration ratio was assumed to be one. The extraction ratio (ER) was calculated by dividing the predicted hepatic clearance by species blood flow (Q), where Q is 90, 55, and 21.7 mL/min/kg for mouse, rat and human, respectively.

Structure (SMILES)	Extraction Ratio @ 1 μM
CCN1CC(Cn2ncc3ncc(-c4ccc(F)c(C(F)F)c4)cc32)OC1=O (racemic) [Example 131, (RS)-5-[[6-[3-(Difluoromethyl)-4-fluoro-phenyl]pyrazolo[4,3-b]pyridin-1-yl]methyl]-3-ethyl-oxazolidin-2-one]	0.58
CC[S+]([O-])Cn1ncc2ncc(-c3ccc(F)c(C(F)F)c3)cc21 (single isomer, unassigned) [Example 85, (R*)-6-(3-(Difluoromethyl)-4-fluorophenyl)-1-((ethylsulfinyl)methyl)-1H-pyrazolo[4,3-b]pyridine]	0.46
CCC(=O)Cn1ncc2ncc(-c3ccc(F)c(C(F)F)c3)cc21 [Example 4, 1-[6-[3-(Difluoromethyl)-4-fluoro-phenyl]pyrazolo[4,3-b]pyridin-1-yl]butan-2-one]	0.66
CCC(=O)Cn1nc(C)c2ncc(-c3ccc(F)c(C(F)F)c3)cc21 [Example 36, 1-(6-(3-(Difluoromethyl)-4-fluorophenyl)-3-methyl-1H-pyrazolo[4,3-b]pyridin-1-yl)butan-2-one]	0.72
CCC(=O)Cn1ncc2ncc(-c3cccc(C(F)(F)F)c3F)cc21 [Example 38, 1-[6-[2-Fluoro-3-(trifluoromethyl)phenyl]pyrazolo[4,3-b]pyridin-1-yl]butan-2-one]	0.61
Cc1c(F)ccc(-c2cnc3cnn(CC(=O)C4CC4)c3c2)c1C [Example 78, 1-Cyclopropyl-2-[6-(4-fluoro-2,3-dimethyl-phenyl)pyrazolo[4,3-b]pyridin-1-yl]ethanone]	0.52

The remaining lines, values ahead:

Extraction Ratio @ 1 μM	Structure (SMILES)
0.50	CC[S+]([O-])Cn1ncc2ncc(-c3cccc(C(F)(F)F)c3F)cc21 (racemic) [Example 86, (RS)-1-(Ethylsulfinylmethyl)-6-[2-fluoro-3-(trifluoromethyl)phenyl]pyrazolo[4,3-b]pyridine]
0.64	CC(=O)Cn1ncc2ncc(-c3ccc(F)c(OC(F)F)c3)cc21 [Example 25, 1-[6-[3-(Difluoromethoxy)-4-fluoro-phenyl]pyrazolo[4,3-b]pyridin-1-yl]propan-2-one]
0.63	CCC(=O)Cn1ncc2ncc(-c3cc(F)c(F)c(F)c3)cc21 [Example 42, 1-[6-(3,4,5-Trifluorophenyl)pyrazolo[4,3-b]pyridin-1-yl]butan-2-one]
0.43	O=C(Cn1ncc2ncc(-c3cccc(C(F)F)c3)cc21)C1CC1 [Example 61, 1-Cyclopropyl-2-[6-[3-(difluoromethyl)phenyl]pyrazolo[4,3-b]pyridin-1-yl]ethanone]
